Results on 2 substances are retold here after patent publication US20160287626A1, “METHODS OF TREATING AND PREVENTING RADIATION DAMAGE” (CANTEX PHARMACEUTICALS, INC., priority 2013, published 2016).

Assay [1] has as its system CD2F1 mice irradiated with 9.25 Gy. Description: Survival of CD2F1 mice after 9.25 Gy total body irradiation. Format: in vivo. The conditions noted are these: 9.25 Gy TBI. As to the method:
FIG. 1 provides a graph illustrating the survival of CD2F1 mice after total body irradiation: control group with no post-irradiation treatment (o); 0.1 mL PBS administered subcutaneously at 4 h post-irradiation (□); 0.1 mL PBS administered subcutaneously at 24, 36, and 48 h post-irradiation (Δ); 0.1 mL 25 mg/kg ODSH administered subcutaneously at 4, 16, and 28 h post-irradiation (▪); and 0.1 mL 25 mg/kg ODSH administered subcutaneously at 24, 36, and 48 h post-irradiation (▴).
CD2F1 male mice (Batch #7586 DOB Dec. 23, 2012) were weighed and animals outside ±20% of the mean weight were excluded. Mice that were within ±20% of the mean weight were randomized into groups of eight animals per box. There were 24 animals per treatment group. The animals received radiation at a dose rate of 0.6 Gy/min in the AFRRI Cobalt 60 gamma radiation facility. Animals were irradiated in Lucite boxes (8 animals/box) and arranged in an array (dosimetry Feb. 25, 2010) using plastic racks. Animals were restrained for no more than 60 min and returned to cages at the end of the irradiation period.
Post-TBI, animals were untreated (naïve) or treated subcutaneously with either phosphate buffered solution (PBS) or ODSH (2-O, 3-O desulfated heparin). […] The animals were monitored daily (twice a day when necessary) for 30 days and euthanized at the completion of the observational period.

In assay [2] the test system is anti-coagulant activity. The conditions noted are these: cited from earlier work.

Entries after “also recorded” stand apart in the source; their conditions may differ.

On to 2-O, 3-O desulfated heparin [ODSH], for which the “survival over the post-irradiation period compared with naïve and PBS-treated mice” value in assay [1] (25 mg/kg s.c. post-irradiation (24, 36 and 48 h), 30-day observation, 25 mg/kg) was “greatest percentage survival; also recorded: improves survival”. Moreover, the “mice still alive at day 10 post-irradiation” value in assay [1] (0.1 mL 25 mg/kg s.c. at 24, 36 and 48 h post-irradiation, day 10) was found to be 95%. Besides, the “anti-coagulant activity in the USP anti-coagulant assay” value in assay [2] is recorded as “less than 9 U/mg”. Besides, in assay [2] (e.g. value), the “anti-coagulant activity in the USP anti-coagulant assay (example value)” value was 7±0.3 U.

For “Unfractionated heparin [reference compound]”, in assay [2], the “anti-coagulant activity in the USP anti-coagulant assay” value is 165-190 U/mg.
